What was measured:
Assay in all cases: Test C greenhouse herbicide test, pre- and postemergence
Assay type in all cases: in vivo
[1] = tested on: ragweed (common ragweed, Ambrosia elatior)
Method in brief: (§1)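 Greenhouse pots; pre-em on seeded loam:sand blend, post-em on 2–18 cm plants (1–4 leaf) in sphagnum peat/vermiculite medium. Formulation: non-phytotoxic solvent + surfactant. Read-out: visual % control (0–100) vs controls at 13–15 d.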

[2] = tested on: velvetleaf (Abutilon theophrasti)
Method in brief: as §1

[3] = tested on: oilseed rape (Brassica napus)
Method in brief: as §1

[4] = tested on: crabgrass, large (large crabgrass, Digitaria sanguinalis)
Method in brief: as §1

[5] = tested on: foxtail, giant (giant foxtail, Setaria faberii)
Method in brief: as §1

[6] = tested on: johnsongrass (Sorghum halepense)
Method in brief: as §1

[7] = tested on: morningglory (Ipomoea coccinea)
Method in brief: as §1

[8] = tested on: nutsedge, yellow (yellow nutsedge, Cyperus esculentus)
Method in brief: as §1

[9] = tested on: lambsquarters (Chenopodium album)
Method in brief: as §1

[10] = tested on: barnyardgrass (Echinochloa crus-galli)
Method in brief: as §1

[11] = tested on: waterhemp (common waterhemp, Amaranthus rudis)
Method in brief: as §1

[12] = tested on: blackgrass (Alopecurus myosuroides)
Method in brief: as §1

[13] = tested on: pigweed (Amaranthus retroflexus)
Method in brief: as §1

[14] = tested on: galium (catchweed bedstraw, Galium aparine)
Method in brief: as §1

soybean (Glycine max) = tested on: soybean (Glycine max)
Method in brief: as §1

[15] = tested on: wheat (winter wheat, Triticum aestivum)
Method in brief: as §1

[16] = Postemergence, 31 g ai/ha, 0 to 100 scale (0 no effect, 100 complete control)
[17] = Postemergence, 125 g ai/ha, scale 0 to 100, 0 is no effect, 100 is complete control
[18] = Postemergence, 250 g ai/ha, scale 0 to 100, 0 no effect, 100 complete control, 13 to 15 d
[19] = Preemergence, 31 g ai/ha, scale 0 to 100, 0 is no effect, 100 is complete control
[20] = Preemergence, 62 g ai/ha, scale 0 to 100, 0 is no effect, 100 is complete control
[21] = Preemergence, 125 g ai/ha, scale 0 to 100, 0 is no effect, 100 is complete control
[22] = Preemergence, 250 g ai/ha, scale 0 to 100 (0 no effect, 100 complete control)
[23] = postemergence, 62 g ai/ha, scale 0 to 100, 0 no effect, 100 complete control

## Cc1cc(C)c2sc(C)c(-c3c(OC(=O)OC(C)C)c(C)nn(C)c3=O)c2c1 [Compound 67]
[1]; [16]
  Ragweed plant response rating: 70
[1]; [17]
  Plant response rating, Ragweed: 98
[1]; [18]
  Plant response rating, Ragweed: 95
[1]; [19]
  Plant response rating, Ragweed: 60
[1]; [20]
  Plant response rating, Ragweed: 85
[1]; [21]
  Plant response rating, Ragweed: 100
[1]; [22]
  Ragweed plant response rating: 98
[1]; [23]
  Ragweed plant response rating: 75
[2]; [16]
  Velvetleaf plant response rating: 70
[2]; [17]
  Plant response rating, Velvetleaf: 85
[2]; [18]
  Plant response rating, Velvetleaf: 98
[2]; [19]
  Plant response rating, Velvetleaf: 10
[2]; [20]
  Plant response rating, Velvetleaf: 35
[2]; [21]
  Plant response rating, Velvetleaf: 60
[2]; [22]
  Velvetleaf plant response rating: 75
[2]; [23]
  Velvetleaf plant response rating: 85
[3]; [16]
  Oilseed Rape plant response rating: 40
[3]; [17]
  Plant response rating, Oilseed Rape: 75
[3]; [18]
  Plant response rating, Oilseed Rape: 75
[3]; [19]
  Plant response rating, Oilseed Rape: 0
[3]; [20]
  Plant response rating, Oilseed Rape: 0
[3]; [21]
  Plant response rating, Oilseed Rape: 0
[3]; [22]
  Oilseed Rape plant response rating: 20
[3]; [23]
  Oilseed Rape plant response rating: 50
[4]; [16]
  Crabgrass, Large plant response rating: 35
[4]; [17]
  Plant response rating, Crabgrass, Large: 35
[4]; [18]
  Plant response rating, Crabgrass, Large: 40
[4]; [19]
  Plant response rating, Crabgrass, Large: 10
[4]; [20]
  Plant response rating, Crabgrass, Large: 70
[4]; [21]
  Plant response rating, Crabgrass, Large: 10
[4]; [22]
  Crabgrass, Large plant response rating: 65
[4]; [23]
  Crabgrass, Large plant response rating: 35
[5]; [16]
  Foxtail, Giant plant response rating: 70
[5]; [17]
  Plant response rating, Foxtail, Giant: 80
[5]; [18]
  Plant response rating, Foxtail, Giant: 85
[5]; [19]
  Plant response rating, Foxtail, Giant: 75
[5]; [20]
  Plant response rating, Foxtail, Giant: 80
[5]; [21]
  Plant response rating, Foxtail, Giant: 98
[5]; [22]
  Foxtail, Giant plant response rating: 100
[5]; [23]
  Foxtail, Giant plant response rating: 75
[6]; [16]
  Johnsongrass plant response rating: 5
[6]; [17]
  Plant response rating, Johnsongrass: 5
[6]; [18]
  Plant response rating, Johnsongrass: 10
[6]; [19]
  Plant response rating, Johnsongrass: 10
[6]; [20]
  Plant response rating, Johnsongrass: 20
[6]; [21]
  Plant response rating, Johnsongrass: 10
[6]; [22]
  Johnsongrass plant response rating: 30
[6]; [23]
  Johnsongrass plant response rating: 5
[7]; [16]
  Morningglory plant response rating: 95
[7]; [17]
  Plant response rating, Morningglory: 100
[7]; [18]
  Plant response rating, Morningglory: 100
[7]; [19]
  Plant response rating, Morningglory: 70
[7]; [20]
  Plant response rating, Morningglory: 80
[7]; [21]
  Plant response rating, Morningglory: 80
[7]; [22]
  Morningglory plant response rating: 90
[7]; [23]
  Morningglory plant response rating: 95
[8]; [16]
  Nutsedge, Yellow plant response rating: 65
[8]; [17]
  Plant response rating, Nutsedge, Yellow: 80
[8]; [18]
  Plant response rating, Nutsedge, Yellow: 85
[8]; [19]
  Plant response rating, Nutsedge, Yellow: 10
[8]; [20]
  Plant response rating, Nutsedge, Yellow: 20
[8]; [21]
  Plant response rating, Nutsedge, Yellow: 55
[8]; [22]
  Nutsedge, Yellow plant response rating: 70
[8]; [23]
  Nutsedge, Yellow plant response rating: 70
[9]; [16]
  Lambsquarters plant response rating: 85
[9]; [17]
  Plant response rating, Lambsquarters: 90
[9]; [18]
  Plant response rating, Lambsquarters: 100
[9]; [19]
  Plant response rating, Lambsquarters: 80
[9]; [20]
  Plant response rating, Lambsquarters: 80
[9]; [21]
  Plant response rating, Lambsquarters: 85
[9]; [22]
  Lambsquarters plant response rating: 85
[9]; [23]
  Lambsquarters plant response rating: 95
[10]; [16]
  Barnyardgrass plant response rating: 25
[10]; [17]
  Plant response rating, Barnyardgrass: 35
[10]; [18]
  Plant response rating, Barnyardgrass: 45
[10]; [19]
  Plant response rating, Barnyardgrass: 5
[10]; [20]
  Plant response rating, Barnyardgrass: 20
[10]; [21]
  Plant response rating, Barnyardgrass: 40
[10]; [22]
  Barnyardgrass plant response rating: 80
[10]; [23]
  Barnyardgrass plant response rating: 35
[11]; [16]
  Waterhemp plant response rating: 60
[11]; [17]
  Plant response rating, Waterhemp: 75
[11]; [18]
  Plant response rating, Waterhemp: 70
[11]; [19]
  Plant response rating, Waterhemp: 70
[11]; [20]
  Plant response rating, Waterhemp: 80
[11]; [21]
  Plant response rating, Waterhemp: 65
[11]; [22]
  Waterhemp plant response rating: 85
[11]; [23]
  Waterhemp plant response rating: 70
[12]; [16]
  Blackgrass plant response rating: 40
[12]; [17]
  Plant response rating, Blackgrass: 65
[12]; [18]
  Plant response rating, Blackgrass: 80
[12]; [19]
  Plant response rating, Blackgrass: 60
[12]; [20]
  Plant response rating, Blackgrass: 30
[12]; [21]
  Plant response rating, Blackgrass: 40
[12]; [22]
  Blackgrass plant response rating: 60
[12]; [23]
  Blackgrass plant response rating: 60
[13]; [16]
  Pigweed plant response rating: 100
[13]; [17]
  Plant response rating, Pigweed: 80
[13]; [18]
  Plant response rating, Pigweed: 85
[13]; [19]
  Plant response rating, Pigweed: 75
[13]; [20]
  Plant response rating, Pigweed: 90
[13]; [21]
  Plant response rating, Pigweed: 95
[13]; [22]
  Pigweed plant response rating: 100
[13]; [23]
  Pigweed plant response rating: 85
[14]; [16]
  Galium plant response rating: 90
[14]; [17]
  Plant response rating, Galium: 95
[14]; [18]
  Plant response rating, Galium: 90
[14]; [19]
  Plant response rating, Galium: 70
[14]; [20]
  Plant response rating, Galium: 90
[14]; [21]
  Plant response rating, Galium: 90
[14]; [22]
  Galium plant response rating: 90
[14]; [23]
  Galium plant response rating: 95
Soybean (Glycine max); [16]
  Soybean plant response rating: 5
Soybean (Glycine max); [17]
  Plant response rating, Soybean: 5
Soybean (Glycine max); [18]
  Plant response rating, Soybean: 10
Soybean (Glycine max); [19]
  Plant response rating, Soybean: 0
Soybean (Glycine max); [20]
  Plant response rating, Soybean: 0
Soybean (Glycine max); [21]
  Plant response rating, Soybean: 0
Soybean (Glycine max); [22]
  Soybean plant response rating: 0
Soybean (Glycine max); [23]
  Soybean plant response rating: 5
[15]; [16]
  Wheat plant response rating: 0
[15]; [17]
  Plant response rating, Wheat: 0
[15]; [18]
  Plant response rating, Wheat: 0
[15]; [19]
  Plant response rating, Wheat: 0
[15]; [20]
  Plant response rating, Wheat: 0
[15]; [21]
  Plant response rating, Wheat: 0
[15]; [22]
  Wheat plant response rating: 0
[15]; [23]
  Wheat plant response rating: 0
